Reference: ChEMBL document CHEMBL6134851, “Comparative Study on Covalent and Noncovalent Endogenous Albumin-Binding β-Glucuronidase-Activated SN38 Prodrugs for Antitumor Efficacy” (J Med Chem, 2025)
Active and inactive are the calls of the source. The rule behind the calls is not given here.

Experiments:
[1] = Cmax in female BALB/c mouse at 15 mg/kg measured up to 5 hrs by HPLC analysis; format: ADME, organism-based; conditions: in vivo
[2] = Prodrug release in female BALB/c nude mouse tumor assessed as (S)-4,11-diethyl-4,9-dihydroxy-1,12-dihydro-14H-pyrano[3',4':6,7]indolizino[1,2-b]quinoline-3,14(4H)-dione accumulation at 15 mg/kg measured after 1 hr by HPLC analysis; format: ADME, organism-based, Neoplasm; conditions: in vivo
[3] = system: HCT-116; test: Antitumor activity against human HCT-116 cells xenografted in female BALB/cA nude mouse model assessed as relative tumor proliferation rate at 15 mg/kg, iv administered twice per week measured on 107 days relative to control; format: functional; conditions: time 107 day
[4] = system: HCT-116; test: Antitumor activity against human HCT-116 cells xenografted in female BALB/cA nude mouse model assessed as relative tumor proliferation rate at 15 mg/kg, iv administered twice per week measured after 107 days; format: functional, organism-based; conditions: time 107.0 day
[5] = Toxicity in female BALB/cA nude mouse assessed as mortality at 15 mg/kg, iv administered twice per week measured after 107 days; format: organism-based; conditions: in vivo, 2568 h, time 107 day
[6] = Toxicity in female BALB/cA nude mouse assessed as effect on body weight loss at 15 mg/kg, iv administered twice per week measured after 107 days; format: organism-based; conditions: in vivo, 2568 h, time 107 day
[7] = Toxicity in female BALB/cA nude mouse assessed as appearance of fibrosis in lung at 15 mg/kg, iv measured after 24 hrs by H and E staining based analysis; format: organism-based; conditions: in vivo
[8] = Toxicity in female BALB/cA nude mouse assessed as necrosis in tumor tissue at 15 mg/kg, iv measured after 24 hrs by H and E staining based analysis; format: organism-based; conditions: in vivo
[9] = Toxicity in female BALB/cA nude mouse assessed as damage in heart at 15 mg/kg, iv measured after 24 hrs by H and E staining based analysis; format: organism-based; conditions: in vivo
[10] = Toxicity in female BALB/cA nude mouse assessed as damage in lung at 15 mg/kg, iv measured after 24 hrs by H and E staining based analysis; format: organism-based; conditions: in vivo
[11] = Toxicity in female BALB/cA nude mouse assessed as appearance of fibrosis in heart at 15 mg/kg, iv measured after 24 hrs by H and E staining based analysis; format: organism-based; conditions: in vivo
[12] = system: BXPC-3; test: Antitumor activity against human BXPC-3 cells xenografted in female BALB/cA nude mouse model assessed as suppression of tumor growth by measuring relative tumor proliferation rate at 38 mg/kg, iv measured after 24 days relative to control; format: functional; conditions: time 24 day
[13] = system: BXPC-3; test: Antitumor activity against human BXPC-3 cells xenografted in female BALB/cA nude mouse model assessed as suppression of tumor growth by measuring relative tumor proliferation rate at 38 mg/kg, iv measured after 35 days; format: functional, organism-based; conditions: time 35.0 day
[14] = Toxicity in female BALB/cA nude mouse assessed as appearance of loss of alveolar architecture at 15 mg/kg, iv BID for 35 days by H and E staining based analysis; format: organism-based; conditions: in vivo, 840 h, time 35 day
[15] = Toxicity in female BALB/cA nude mouse assessed as appearance of alveolar wall thickening at 15 mg/kg, iv BID for 35 days by H and E staining based analysis; format: organism-based; conditions: in vivo, 840 h, time 35 day
[16] = Toxicity in female BALB/cA nude mouse assessed as pulmonary damage at 15 mg/kg, iv BID for 35 days by H and E staining based analysis; format: organism-based; conditions: in vivo, 840 h, time 35 day
[17] = in vivo; conditions: female, BALB/c, mouse, 15 mg/kg

`CCc1c2c(nc3ccc(OC(=O)N4CCC(N5CCCCC5)CC4)cc13)-c1cc3c(c(=O)n1C2)COC(=O)[C@]3(O)CC` [IRINOTECAN] showed a Cmax [1] of 3040 ng/mL, a Drug metabolism [2] of 0.032 % ID/g and an Activity [3] of 50.36%. The Activity [4] was “inactive”, the Activity [5] was “Non-toxic” and the Activity [6] was “Toxic”. For the same molecule, the Activity [7] was “Toxic”, the Activity [8] was “Toxic” and the Activity [9] was “Toxic”. The Activity [10] was “Toxic”, the Activity [11] was “Toxic” and the Activity [12] was 43.53%. For the same molecule, the Activity [13] was “inactive”, the Activity [14] was “Toxic” and the Activity [15] was “Toxic”. For the same molecule, the Activity [16] was “Toxic” and the AUC(0-t) at 5 h [17] was 3120 ng·h/mL.
